# Source: patent US12185720B2, “Chitooligosaccharides and methods for use in enhancing plant growth” (NOVOZYMES BIOAG A/S, priority 2011, dated 2025)
# “Also recorded” adds a separate entry of the source.
# Columns and labels:
# Type in all cases: in vivo
# canola seeds = assay: Canola seed germination in petriplates; settings: 10^−9 M
# Method: (§1) In petriplates on moist filter paper moistened with 10^−9 M treatment solution, canola and wheat seeds were plated for germination. At 18 h after plating, Pea CO induced more canola and wheat seed germination as compared to Pea LCO. Over the period of 21 to 24 hours, seed germination rate for LCO and CO leveled up.
# Red Clover seeds = assay: Seed germination in multiple crops: Red Clover; settings: 24 h, dark, 22° C., FIG. 23
# Method: Similar to the seed germination experiment mentioned above, seeds of different crops were placed on moist filter paper in petriplates containing 5 ml liquid in each. Petriplates with seeds were then kept in the dark at 22° C.
# Cotton seeds = assay: Cotton seed treatment (greenhouse); settings: seed treatment 10^−8 M, 3 fl oz/100 lbs of seed; 4 wks; FIG. 26
# Method: Cotton seeds were treated with LCO and CO 10^−8 M treatment solutions at a dose rate of 3 fl oz/100 lbs of seed. Seeds were planted the very next day in plastic pots containing 1:1 sand:perlite mixture. Seeds were grown in greenhouse for 4 wks and then they were harvested.
# Sorghum seeds = assay: Sorghum seed germination in petriplates; settings: CO 10^−8 M, LCO 10^−8 M alone or CO 10^−8 with LCO 10^−9; after 5 days; FIG. 29
# Method: Sorghum seeds were germinated in petriplates containing liquid treatment solutions. Seedlings were harvested after 5 days and their roots were measured using WinRHIZO scanner.
# [1] = system: Alfalfa (Medicago sativa) seeds; assay: Alfalfa seed germination; settings: 10^−8 M, FIG. 17
# Method: Alfalfa (Medicago sativa) seeds were germinated in petriplates on moist filter paper containing Pea LCO and Pea CO treatment solutions (10^−8 M) and petriplates were kept in the dark at room temperature (22° C.).
# [2] = system: Common vetch (Vicia sativa) seeds; assay: Common vetch seed germination and root length; settings: FIG. 21
# Method: Common vetch seeds were plated in petriplates containing 5 ml of treatment solutions on filter paper. Seed germination at 22° C. was counted after 24 h and seedling root length was measured at day 5 with WinRhizo system.
# [3] = system: Soybean seeds (Jung seed, var. 8168NRR); assay: Treatment of soybean seed with various actives (greenhouse)
# Method: Soybean seeds (Jung seed, var. 8168NRR) were treated with various active molecules. Seeds were treated with a liquid dose rate of 3 fl oz/100 lbs of seed. Seeds were allowed to dry for a 2 hours and planted in greenhouse in plastic pots containing 1:1 sand:perlite mixture. Seedlings were grown for 4 wks with occasional liquid fertilizer applications and then the plants were harvested. The central leaflet from the 2nd trifoliate (from down to top) was isolated and measured for surface area on a WinRhizo scanner. The rest of the plants were used for plant dry weight (DW).
# wheat seeds = assay: Wheat seed germination in petriplates (Example 6); settings: 10^−9 M
# Method: as §1
# soybean = assay: Soybean field trials, foliar application, grain yield
# Corn seeds = assay: Corn seed germination and root length in petriplates; settings: 5 days after plating
# Method: Corn and wheat seeds were plated in petriplates containing 5 ml of treatment solution on a filter paper. Corn seeds were placed on moist filter paper for germination. Similarly, wheat seeds (spring wheat) were placed in petriplates. […] Roots were harvested and their length measured by WinRhizo system.
smiles,measurement,setting,value
CC(=O)NC1C(O)OC(CO)C(OC2OC(CO)C(OC3OC(CO)C(OC4OC(CO)C(OC5OC(CO)C(O)C(O)C5N)C(O)C4NC(C)=O)C(O)C3NC(C)=O)C(O)C2NC(C)=O)C1O (stereo not shown) [Pea CO],seed germination at 18 h as compared to Pea LCO,canola seeds; FIG. 15,more
same,seed germination rate over 21 to 24 hours,canola seeds; LCO versus CO,leveled up
same,seed germination,Red Clover seeds,better germination
same,cotton plant dry weight,Cotton seeds,no significant differences; also recorded: relatively higher
same,total plant dry weight increase over control,Cotton seeds,3.29%
same,sorghum seedling root length,Sorghum seeds,increased seedling root length
same,effect on alfalfa seed germination (conclusion),[1],could positively impact
same,"germination rate at 20 h among control, LCO and CO","[1]; dark, 22° C.",no difference
same,more germination over control and LCO at 27 h,"[1]; dark, 22° C.",6%
same,early seed germination,"[2]; 22° C., counted after 24 h",induced early seed germination
same,more germination over control and LCO,[2]; one day after plating,25%
same,"plant dry weights (shoot, root or total plant biomass)","[3]; another experiment, vs soybean LCO, isoflavonoids, water, FIG. 13",highest plant dry weights
same,leaf surface area,"[3]; seed treatment 3 fl oz/100 lbs of seed, 4 wks, central leaflet of 2nd trifoliate, vs control (water), FIG. 12",significant increase
same,"leaf surface area, among the three actives (pea LCO, pea CO, China CO)","[3]; seed treatment, 4 wks, FIG. 12",highest leaf surface area
same,seed germination at 18 h as compared to Pea LCO,wheat seeds; FIG. 16,more
same,seed germination rate over 21 to 24 hours,wheat seeds; LCO versus CO,leveled up
same,"YIELD, Mean (N = 19)","soybean; soybean foliar at V4 to V5, 8×10^−8 molar, 12 μg/acre, with glyphosate",58.2 bu/A
same,"YIELD, Response Increase","soybean; soybean foliar, 12 μg/acre",3 % of Control
same,"YIELD, Response Increase","soybean; soybean foliar, 12 μg/acre, listed as CO (CO-V)",3% of Control
same,"YIELD, Response","soybean; soybean foliar, 12 μg/acre, over Control",1.7 bu/A
same,CO mean yield less than foliar LCO,"soybean; soybean foliar, CO minus LCO, less",0.1 bu/A
same,yield enhancement as a foliar treatment (conclusion),"soybean; soybean foliar, CO versus LCO",substantially equal yield enhancements
same,Positive Yield Response,"soybean; soybean foliar, percent of the 19 trials",68.4%
same,corn seed germination,Corn seeds; FIG. 18,increased germination
same,corn seedling root length over control,"Corn seeds; WinRhizo, FIG. 19",significantly increased
